Molecules are shown by their SMILES.

This is an account of results in US20110105472A1, “Diaminopyrimidines as crop protection agents” (Bayer CropScience AG, priority 2008, published 2011).

The series in a line: logP by LC-MS, method [b], acidic range pH 2.7. Conditions: pH 2.7. Format: physicochemical.
Consider `Fc1ccc(Nc2ncc(Br)c(NC3CCC3)n2)cc1` [Compound 62], for which the log p is 2.6[b].
With `Brc1cnc(Nc2ccc3c(c2)OCO3)nc1NC1CCC1` [Compound 19] the figure was 1.87[b].
Consider `CN(C)S(=O)(=O)Oc1ccc(Nc2ncc(Br)c(NC3CCC3)n2)cc1` [Compound 160], for which the log p is 2.46[b].
Regarding `CC1(C(=O)Nc2cccc(Nc3ncc(Cl)c(NC4CCC4)n3)c2)CC1` [Compound 140], the log p was 1.92[b].
As for `CN1CC(=O)N(c2ccc(Nc3ncc(Br)c(NC4CCC4)n3)cc2)C1=O` [Compound 164], the log p was 1.63[b].
With `CNC(=O)Oc1cccc(Nc2ncc(Br)c(NC3CCC3)n2)c1` [Compound 196] the figure was 1.75[b]; with `CC1(C(=O)Nc2ccc(Nc3ncc(Cl)c(NC4CCC4)n3)cc2)CC1` [compound 122], 1.87[b].
`CC(C)(C)NC(=O)c1ccc(Nc2ncc(Br)c(NC3CCC3)n2)cc1` [Compound 102]: the log p is 2.46[b].
`OCc1cccc(Nc2ncc(Br)c(NC3CCC3)n2)c1` [Compound 185]: the log p is 1.44[b].
For `CC(=O)c1cccc(Nc2ncc(C(F)(F)F)c(NC3CCC3)n2)c1` [Compound 227], the log p is 3.24[b].
As for `O=C1Cc2cc(Nc3ncc(Cl)c(NC4CCC4)n3)ccc2N1` [compound 7], the figure is 1.33[b]; as for `COC(=O)c1ccc(Nc2ncc(Br)c(NC3CCC3)n2)cc1Cl` [Compound 78], 3.59[b].
For `N#Cc1cccc(Nc2ncc(Br)c(NC3CCC3)n2)c1` [Compound 64], the log p was 2.67[b].
On to `CC(C)c1cccc(Nc2ncc(C(F)(F)F)c(NC3CCC3)n2)c1` [Compound 225], for which the log p is 4.61[b].
`O=S(=O)(c1cccc(Nc2ncc(Cl)c(NC3CCC3)n2)c1)N1CCCCC1` [compound 130]: the log p is 2.3[b].
On to `CC(C)(C)C(=O)Nc1ccc(Nc2ncc(Cl)c(NC3CCC3)n2)cc1` [Compound 116], for which the log p is 1.94[b].
For the molecule `COc1ccccc1Nc1ncc(Br)c(NC2CCC2)n1` [Compound 68], the log p is 2.23[b].
Turning to `COc1ccc(Nc2ncc(Br)c(NC3CCC3)n2)cc1OC` [Compound 65], the log p is 1.71[b].
With `O=C(Nc1ccccc1)c1ccc(Nc2ncc(Br)c(NC3CCC3)n2)cc1` [Compound 72], the log p is 2.09[b].
As for `C=CCNC(=O)c1ccc(Nc2ncc(C(F)(F)F)c(NC3CCC3)n2)cc1` [Compound 239], the figure is 2.79[b]; as for `CC(C)(CF)C(=O)Nc1ccc(Nc2ncc(Br)c(NC3CCC3)n2)cc1` [Compound 171], 1.99[b].
`CCOC(=O)Nc1ccc(Nc2ncc(Cl)c(NC3CCC3)n2)cc1` [compound 136]: the log p is 1.8[b].
As for `Cc1cc(C)c(C)c(Nc2ncc(Br)c(NC3CCC3)n2)c1` [Compound 61], the figure is 2.57[b].
Consider `O=C1CCc2cc(Nc3ncc(Br)c(NC4CCC4)n3)ccc2N1` [Compound 4], for which the log p was 1.49[b].
Take `CCOC(=O)Nc1cccc(Nc2ncc(Br)c(NC3CCC3)n2)c1` [Compound 105]: the log p is 2.04[b].
As for `FC(F)(F)Oc1ccc(Nc2ncc(Br)c(NC3CCC3)n2)cc1Cl` [Compound 81], the figure is 4.72[b]; as for `O=C(c1ccc(Nc2ncc(Cl)c(NC3CCC3)n2)cc1)N1CCCCC1` [Compound 203], 2.27[b]; as for `FC(F)C(F)(F)Oc1ccc(Nc2ncc(Br)c(NC3CCC3)n2)cc1` [compound 159], 3.1[b].
On to `Cc1nc2cc(Nc3ncc(Br)c(NC4CCC4)n3)ccc2s1` [Compound 10], for which the log p is 2.11[b].
As to `CN1C(=O)COc2ccc(Nc3ncc(Br)c(NC4CCC4)n3)cc21` [compound 14], the log p was 1.85[b].
For `CCC(=O)c1ccc(Nc2ncc(Br)c(NC3CCC3)n2)cc1` [Compound 172], the log p is 3.19[b].
For the molecule `CC1(C(=O)Nc2ccc(Nc3ncc(Br)c(NC4CCC4)n3)cc2)CC1` [compound 189], the log p is 2[b].
With `CN(C)S(=O)(=O)c1ccc(Nc2ncc(Cl)c(NC3CCC3)n2)cc1` [compound 114] the figure was 2.53[b]; with `CCCCC(=O)Oc1ccc(Nc2ncc(Br)c(NC3CCC3)n2)cc1` [compound 161], 4.32[b].
In the case of `O=c1oc2ccc(Nc3ncc(Br)c(NC4CCC4)n3)cc2s1` [compound 11], the log p is 2.63[b].
Consider `O=c1[nH]c2cc(Nc3ncc(Br)c(NC4CCC4)n3)ccc2o1` [Compound 16], for which the log p was 1.61[b].
For `C=CCNC(=O)c1ccc(Nc2ncc(Cl)c(NC3CCC3)n2)cc1` [Compound 241], the log p was 1.91[b].
On to `CC(=O)N(C)c1ccc(Nc2ncc(Br)c(NC3CCC3)n2)cc1` [Compound 94], for which the log p was 1.73[b].
As for `CN(C)S(=O)(=O)Oc1cccc(Nc2ncc(Br)c(NC3CCC3)n2)c1` [Compound 89], the figure is 2.7[b]; as for `CC(C)(CF)C(=O)Nc1cccc(Nc2ncc(Cl)c(NC3CCC3)n2)c1` [Compound 141], 1.97[b]; as for `Brc1cnc(Nc2cccc(-c3nccs3)c2)nc1NC1CCC1` [Compound 33], 2.8[b].
For the molecule `O=CNc1cccc(Nc2ncc(Br)c(NC3CCC3)n2)c1` [Compound 154], the log p is 1.58[b].
As to `N#Cc1ccc(Nc2ncc(Br)c(NC3CCC3)n2)cc1` [Compound 70], the log p is 2.95[b].
`C=C(C)C(=O)Nc1cccc(Nc2ncc(Cl)c(NC3CCC3)n2)c1` [compound 124]: the log p was 1.8[b].
With `CCOC(=O)Nc1ccc(Nc2ncc(Br)c(NC3CCC3)n2)cc1` [Compound 195] the figure was 1.9[b].
As for `Cc1cc(O)ccc1Nc1ncc(Br)c(NC2CCC2)n1` [compound 198], the log p is 1.47[b].
With `Brc1cnc(Nc2ccc3[nH]ccc3c2)nc1NC1CCC1` [Compound 1] the figure was 1.59[b].
With `CS(=O)(=O)c1ccc(Nc2ncc(Br)c(NC3CCC3)n2)cc1` [Compound 179] the figure was 2.32[b]; with `Brc1cnc(Nc2ccc(-c3cscn3)cc2)nc1NC1CCC1` [Compound 74], 2.26[b]; with `N#CCc1ccc(Nc2ncc(Cl)c(NC3CCC3)n2)cc1` [Compound 233], 1.88[b].
`COCc1cccc(Nc2ncc(Br)c(NC3CCC3)n2)c1` [Compound 39]: the log p was 2.2[b].
As for `CC(C)(C)c1cccc(Nc2ncc(Cl)c(NC3CCC3)n2)c1` [compound 255], the figure is 3.26[b]; as for `CC(C)c1ccc(Nc2ncc(Br)c(NC3CCC3)n2)cc1` [Compound 40], 3.13[b]; as for `Cc1cccc(Nc2ncc(Br)c(NC3CCC3)n2)c1` [Compound 224], 2.55[b].
With `CSc1ccc(Nc2ncc(Cl)c(NC3CCC3)n2)cc1Cl` [compound 115] the figure was 3.22[b].
With `Cc1ccc(NS(=O)(=O)c2cc(Nc3ncc(Br)c(NC4CCC4)n3)ccc2C)cc1` [Compound 66] the figure was 3.07[b]; with `Fc1ccc(Nc2ncc(Br)c(NC3CCC3)n2)cc1` [Compound 49], 2.33[b]; with `CC(C)(C)NC(=O)Cc1cccc(Nc2ncc(Br)c(NC3CCC3)n2)c1` [Compound 143], 2.19[b].
Regarding `CC(=O)CCc1cccc(Nc2ncc(Br)c(NC3CCC3)n2)c1` [Compound 253], the log p is 2.04[b].
With `Clc1ccc(Nc2ncc(Br)c(NC3CCC3)n2)cc1` [compound 69], the log p was 2.99[b].
Take `CNc1ccc(Nc2ncc(Br)c(NC3CCC3)n2)cc1` [compound 213]: the log p was 1.18[b].
With `O=S1(=O)CCCN1c1cccc(Nc2ncc(Cl)c(NC3CCC3)n2)c1` [Compound 257] the figure was 1.74[b].
In the case of `O=C1NC(=O)C(c2ccc(Nc3ncc(Cl)c(NC4CCC4)n3)cc2)N1` (stereo not drawn) [compound 134], the log p was 1.33[b].
For the molecule `COc1cc(Nc2ncc(Br)c(NC3CCC3)n2)ccc1NS(C)(=O)=O` [Compound 84], the log p was 1.75[b].
Take `N#Cc1cnc(Nc2ccccc2)nc1NC1CCC1` [compound 29]: the log p was 2.92[b].
As for `CNC(=O)Oc1cccc(Nc2ncc(Cl)c(NC3CCC3)n2)c1` [Compound 138], the log p is 1.64[b].
With `CN(C)C(=O)c1cccc(Nc2ncc(Cl)c(NC3CCC3)n2)c1` [Compound 247], the log p was 1.57[b].
For `Cc1ccccc1Nc1ncc(Br)c(NC2CCC2)n1` [Compound 60], the log p is 1.87[b].
With `O=C(NC1CC1)c1cccc(Nc2ncc(Br)c(NC3CCC3)n2)c1` [Compound 180] the figure was 1.78[b]; with `O=C1N(CCCl)CCN1c1cccc(Nc2ncc(Br)c(NC3CCC3)n2)c1` [Compound 206], 2.19[b]; with `Brc1cnc(Nc2ccccc2)nc1NC1CCC1` [Compound 229], 2.18[b].
Consider `CC(C)(CF)C(=O)Nc1cccc(Nc2ncc(Br)c(NC3CCC3)n2)c1` [Compound 166], for which the log p is 2.09[b].
`CC(C)C(=O)Nc1ccc(Nc2ncc(Br)c(NC3CCC3)n2)cc1` [compound 169]: the log p was 1.83[b].
Turning to `Oc1cccc(Nc2ncc(Br)c(NC3CCC3)n2)c1` [Compound 178], the log p is 1.5[b].
For `O=C1CCCCN1c1cccc(Nc2ncc(Cl)c(NC3CCC3)n2)c1` [Compound 204], the log p is 1.66[b].
For the molecule `CS(=O)(=O)c1ccc(Nc2ncc(Cl)c(NC3CCC3)n2)cc1` [compound 113], the log p was 2.09[b].
`C=C(C)C(=O)Nc1cccc(Nc2ncc(Br)c(NC3CCC3)n2)c1` [Compound 98]: the log p was 1.9[b].
`CCC(=O)Nc1cccc(Nc2ncc(Br)c(NC3CCC3)n2)c1` [Compound 97]: the log p is 1.71[b].
Take `N#Cc1cccc(Nc2ncc(Cl)c(NC3CCC3)n2)c1` [compound 107]: the log p is 2.46[b].
For `CS(=O)(=O)c1cccc(Nc2ncc(C(F)(F)F)c(NC3CCC3)n2)c1` [Compound 264], the log p was 2.76[b].
As for `O=C1NC(=O)c2cc(Nc3ncc(Br)c(NC4CCC4)n3)ccc21` [compound 22], the figure is 2.25[b].
